Results taken from patent US20080233621A1, “Method For Producing Alcohol and Carboxylic Acid Having Optical Activity” (API Corporation, priority 2004, published 2008).

Test system: carbonyl reductase IsADH1
Assay: Substrate specificity of IsADH1: carbonyl reductase activity by NADPH consumption (absorbance at 340 nm)
Format: biochemical, Issatchankia scutulata var. scutulata JCM1828 strain
Set-up: key: —: Activity cannot be detected; Trace: a slight level of activity is detected
Details: purified carbonyl reductase, 2 mM substrate, 0.32 mM NADPH, 100 mM Tris-HCl (pH 7.5), 37° C.; activity to 1-acetoxy-3-chloro-2-propanone defined as 100
Experimental: The Issatchankia scutulata var. scutulata JCM1828 strain was cultured in 2 L of a medium (80 g of glucose, 20 g of yeast extract (manufactured by Difco), and 40 g/L peptone (manufactured by Kyokuto Pharmaceutical Industrial Co., Ltd.)), and a cell mass was then prepared by centrifugation. 150 g of the obtained wet cell mass was suspended in 10 mM potassium phosphate buffer (pH 7) and 0.1 mM DTT (hereinafter simply referred to as a “buffer”), and it was then crushed with DYNO-MILL KDL (manufactured by Shimaru Enterprises Corp.). Thereafter, the cell mass residue was eliminated by centrifugation, so as to obtain a cell-free extract. Thereafter, PEG6000 was added to the cell-free extract to a concentration of 90 g/L, and the obtained mixture was then left at rest at 4° C. for 1 hour. Thereafter, the precipitate was eliminated by centrifugation. The obtained supernatant was then subjected to anion exchange chromatography using DEAE Sepharose Fast Flow (manufactured by Amersham Biosciences), hydrophobic interaction chromatography using Butyl Sepharose 4 Fast Flow (manufactured by Amersham Biosciences), anion exchange chromatography using MonoQ (manufactured by Amersham Biosciences), and Gel filtration chromatography using Superdex 200 (manufactured by Amersham Biosciences), so that carbonyl reductase of interest could be purified to a single band in electrophoresis.
During purification, the activity of carbonyl reductase was measured by reacting the reaction solution containing an enzyme solution (100 mM Tris-HCl (pH 7.5), 0.32 mM NADPH, and 2 mM 1-acetoxy-3-chloro-2-propanone) at 37° C. and then calculating the amount of NADPH consumed based on a decrease in the absorbance at 340 nm. For the measurement of the absorbance, SPECTRAmax 190 (manufactured by Molecular Devices) was used. It is to be noted that the activity necessary for consuming 1 nmol of NADPH for 1 minute in the aforementioned reaction was defined as 1 U.
With regard to various carbonyl compounds, a reaction solution (100 mM Tris-HCl (pH 7.5), 0.32 mM NADPH, and a 2 mM substrate) containing the carbonyl reductase solution purified in (2) above was prepared, and it was reacted at 37° C. The amount of NADPH consumed in the reaction solution was monitored based on the absorbance at 340 nm, so as to measure carbonyl reductase activity to each compound. For the measurement of the absorbance, SPECTRAmax 190 (manufactured by Molecular Devices) was used. The relative activity of carbonyl reductase to each substrate compound obtained when carbonyl reductase activity to 1-acetoxy-3-chloro-2-propanone was defined as 100 is shown in Table 4.

Structure (SMILES): CCOC(=O)CC(=O)c1cccnc1 [Ethyl nicotinoylacetate]
- Relative activity: 20.7

Structure (SMILES): O=C(c1ccccc1)C(F)(F)F [2,2,2-trifluoroacetophenone]
- Relative activity: 53.8

Structure (SMILES): CCOC(=O)CC(C)=O [Ethyl 3-oxobutyrate]
- Relative activity: 25.5

Structure (SMILES): CCOC(=O)C(C)=O [Ethyl pyruvate]
- Relative activity: Trace

Structure (SMILES): CCC(=O)c1ccccc1 [Propiophenone]
- Relative activity: Trace

Structure (SMILES): CC(=O)OCC(=O)CCl [1-acetoxy-3-chloro-2-propanone]
- Relative activity: 100

Structure (SMILES): O=Cc1ccc(Cl)cc1 [p-chlorobenzaldehyde]
- Relative activity: 58.0

Structure (SMILES): O=C(O)C(=O)Cc1ccccc1 [Phenylpyruvic acid]
- Relative activity: 12.2

Structure (SMILES): CC(=O)COc1ccccc1 [Phenoxyacetone]
- Relative activity: —

Structure (SMILES): CC(=O)c1ccccc1 [Acetophenone]
- Relative activity: —

Structure (SMILES): CCOC(=O)CC(=O)c1ccccc1 [Ethyl benzoylacetate]
- Relative activity: Trace

Structure (SMILES): CCC(=O)c1cccnc1 [3-propionylpyridine]
- Relative activity: 11.2

Structure (SMILES): O=C1CC2CCC1C2 (centres unmarked) [2-norbornanone]
- Relative activity: —

Structure (SMILES): CCOC(=O)CC(=O)CCl [Ethyl 4-chloro-3-oxobutyrate]
- Relative activity: 212

Structure (SMILES): CC(=O)C(C)=O [Diacetyl]
- Relative activity: —

Structure (SMILES): O=Cc1ccc(O)cc1 [p-hydroxybenzaldehyde]
- Relative activity: —

Structure (SMILES): O=C1CN2CCC1CC2 [3-quinuclidinone]
- Relative activity: Trace

Structure (SMILES): CCC(=O)C(C)=O [2,3-pentadione]
- Relative activity: Trace

Structure (SMILES): CCOC(=O)C(=O)C(C)C [Ethyl 3-methyl-2-oxobutylate]
- Relative activity: Trace

Structure (SMILES): CC(=O)C(C)O (centres unmarked) [Acetoin]
- Relative activity: —
